The target in one series is HIV-1 RT (Human immunodeficiency virus type 1 group M subtype B, UniProt P04585). In words: HIV-1 Reverse Transcriptase Assay (RNA-dependent DNA polymerase activity, SPA). Type of series: biochemical. Particulars: 30° C., 30 min, 10% DMSO. As for the experimental part:
RNA-dependent DNA polymerase activity was measured using a biotinylated primer oligonucleotide and tritiated dNTP substrate. Newly synthesized DNA was quantified by capturing the biotinylated primer molecules on streptavidin coated Scintillation Proximity Assay (SPA) beads (Amersham). The sequences of the polymerase assay substrate were: 18 nt DNA primer, 5′-Biotin/GTC CCT GTT CGG GCG CCA-3′; 47 nt RNA template, 5′-GGGUCUCUCUGGUUAGACCACUCUAGCAGUGGCGCCCGAACAGGGAC-3′. The biotinylated DNA primer was obtained from the Integrated DNA Technologies Inc. and the RNA template was synthesized by Dharmacon. The DNA polymerase assay (final volume 50 μl) contained 32 nM biotinylated DNA primer, 64 nM RNA substrate, dGTP, dCTP, dTTP (each at 5 μM), 103 nM [^3H]-dATP (specific activity=[…]), in 45 mM Tris-HCl, pH 8.0, 45 mM NaCl, 2.7 mM Mg(CH3COO)2, 0.045% Triton X-100 w/v, 0.9 mM EDTA. The reactions contained 5 ul of serial compound dilutions in 100% DMSO for IC50 determination and the final concentrations of DMSO were 10%. Reactions were initiated by the addition of 30 μl of the HIV-RT enzyme (final concentrations of 1-3 nM). Protein concentrations were adjusted to provide linear product formation for at least 30 min of incubation. After incubation at 30° C. for 30 min, the reaction was quenched by addition of 50 μl of 200 mM EDTA (pH 8.0) and […] SA-PVT SPA beads (Amersham, RPNQ0009, reconstituted in 20 mM Tris-HCl, pH 8.0, 100 mM EDTA and 1% BSA). The beads were left to settle overnight and the SPA signals were counted in a 96-well top counter-NXT (Packard).

Series [1] concerns HXB2-strain of HIV in MT4 cells. Nature of the series: Antiviral assay: protection of HIV-infected MT4 cells from cell death (MTT). Type of series: cell-based. The note with it: Human immunodeficiency virus 1, 120 h; MT4 cells infected with HXB2-strain of HIV, 5 days, MTT viability. As to the method: Anti-HIV antiviral activity was assessed using an adaptation of the method of Pauwels et al. {Pauwels et al., J Virol Methods 1988 20:309-321}. The method is based on the ability of compounds to protect HIV-infected T lymphoblastoid cells (MT4 cells) from cell-death mediated by the infection. The endpoint of the assay was calculated as the concentration of compound at which the cell viability of the culture was preserved by 50% (‘50% inhibitory concentration’, IC50). The cell viability of a culture was determined by the uptake of soluble, yellow 3-[4,5-dimethylthiazol-2-yl]-2,5-diphenyltetrazolium bromide (MTT) and its reduction to a purple insoluble formazan salt. After solubilization, spectrophotometric methods were employed to measure the amount of formazan product. […]
A fresh solution of 5 mg/mL MTT was prepared in 0.01 M phosphate buffered saline, pH 7.2 and 20 microliters added to each culture. […] When the formazan deposit was fully solubilized by further mixing, the absorbance (OD) of the cultures was measured at 540 nm and 690 nm wavelength (690 nm readings were used as blanks for artifacts between wells). The percent protection for each treated culture was then calculated from the equation: […]

SMILES strings stand for the structures.

`Cc1cn(Cc2ccc(Br)c(Oc3cc(Cl)cc(C#N)c3)c2F)c(=O)[nH]c1=O` [Compound I-2, 3-[6-Bromo-2-fluoro-3-(5-methyl-2,4-dioxo-3,4-dihydro-2H-pyrimidin-1-ylmethyl)-phenoxy]-5-chloro-benzonitrile] registered a melting point of 223.1 to 224.2 °C. Further, the midpoint of inhibition on HIV-1 RT, the IC50, lay at 3.9 nM. This molecule had an IC50 in series [1] of 3.1 nM.

With `N#Cc1cc(Cl)cc(Oc2c(Br)ccc(CN3CC(=O)NC3=O)c2F)c1` [Compound I-20, 3-[6-Bromo-3-(2,4-dioxo-imidazolidin-1-ylmethyl)-2-fluoro-phenoxy]-5-chloro-benzonitrile], the melting point was in the range of 131.5 to 132.8 °C. In addition, 9 nM corresponded to half-maximal inhibition at HIV-1 RT (IC50). The half-maximal inhibitory concentration (IC50) in series [1] amounted to 4.2 nM.

Take `Cc1cn(Cc2ccc(Br)c(Oc3cc(C#N)cc(C(F)F)c3)c2F)c(=O)[nH]c1=O` [Compound I-27, 3-[6-Bromo-2-fluoro-3-(5-methyl-2,4-dioxo-3,4-dihydro-2H-pyrimidin-1-ylmethyl)-phenoxy]-5-difluoromethyl-benzonitrile]: the melting point is 232.3 to 234.8 °C. On HIV-1 RT, the IC50 turned out to be 3.3 nM.

For `N#Cc1cc(Cl)cc(Oc2c(Br)ccc(CN3CC(=O)NC3=S)c2F)c1` [Compound I-28, 3-[6-Bromo-2-fluoro-3-(4-oxo-2-thioxo-imidazolidin-1-ylmethyl)-phenoxy]-5-chloro-benzonitrile], the melting point was in the range of 172 to 173 °C. The molecule also returned a half-inhibitory concentration (IC50) at HIV-1 RT of 86 nM.

Consider `CC1CN(Cc2ccc(Br)c(Oc3cc(Cl)cc(C#N)c3)c2F)C(=O)NC1=O` (stereo not shown) [Compound I-29, 3-[6-Bromo-2-fluoro-3-(5-methyl-2,4-dioxo-tetrahydro-pyrimidin-1-ylmethyl)-phenoxy]-5-chloro-benzonitrile], for which the melting point lay within 227.8 to 228.6 °C. At HIV-1 RT, the IC50 turned out to be 85.8 nM.

Regarding `N#Cc1cc(Cl)cc(Oc2c(Br)ccc(Cn3cc(O)c(=O)[nH]c3=O)c2F)c1` [Compound I-30, 3-[6-Bromo-2-fluoro-3-(5-hydroxy-2,4-dioxo-3,4-dihydro-2H-pyrimidin-1-ylmethyl)-phenoxy]-5-chloro-benzonitrile], the melting point lay within 238 to 240 °C. This molecule also showed a 50% inhibitory concentration (IC50) at HIV-1 RT of 34.5 nM.

Regarding `Cn1cc(Cc2ccc(Br)c(Oc3cc(Cl)cc(C#N)c3)c2F)c(=O)[nH]c1=O` [Compound I-31, 3-[6-Bromo-2-fluoro-3-(1-methyl-2,4-dioxo-1,2,3,4-tetrahydro-pyrimidin-5-ylmethyl)-phenoxy]-5-chloro-benzonitrile], the melting point lay in the range of 226 to 227 °C. In addition, half-maximal inhibition on HIV-1 RT (IC50) required 5.9 nM.

(Values after US8026362B2, “Non-nucleoside reverse transcriptase inhibitors” (Roche Palo Alto LLC, priority 2007, dated 2011).)
